Test results: patent publication US20120316203A1, “Compositions and Methods for Inhibition of Cancers” (THE OHIO STATE UNIVERSITY RESEARCH FOUNDATION, priority 2009, published 2012)

What was measured:
hOSE cells = assay: Cell viability by MTT assay, noncancerous hOSE control cells; format: cell-based, human
Protocol: Cell viability was determined by a colorimetric assay using MTT. In the mitochondria of living cells, yellow MTT undergoes a reductive conversion to formazan, producing a purple color. Cells, grown to […] confluence in 75-mm flasks, were trypsinized, counted, seeded in 96-well plates with an average population of 7,000 cells per well, incubated overnight, and then treated with curcumin, H-4073, or HO-3867 for 24 hours. All experiments were done using eight replicates and, repeated at least thrice.

[1] = tested on: p53, p21, p27, cdk2, and cyclin A in A2780 cells; assay: Immunoblot of cell cycle regulatory proteins; format: cell-based, human; conditions: Western blot
Protocol: (§1) Cells in RPMI 1640 were treated with DMSO (control) or HO-3867 (10 μmol/L) for 24 hours. Equal volumes of DMSO (0.1% v/v) were present in each treatment. Following treatment, the cell lysates were prepared in non-denaturing lysis buffer containing 10 mmol/L Tris-HCl (pH 7.4), 150 mmol/L NaCl, 1% Triton X-100, 1 mmol/L EDTA, 1 mmol/L EGTA, 0.3 mmol/L phenylmethyl-sulfonyl fluoride, 0.2 mmol/L sodium orthovanadate, 0.5% NP40, 1 μg/mL aprotinin, and 1 μg/mL leupetin. The lysates were centrifuged at 10,000×g for 20 minutes at 4° C. and the supernatant was separated. The protein concentration in the lysates was determined using a Pierce detergent-compatible protein assay kit. For Western blotting, 25 to 50 μg of protein lysate per sample were denatured in 2×SDS-PAGE sample buffer and subjected to SDS-PAGE on a 10% tris-glycine gel. The separated proteins were transferred to a polyvinylidene fluoride membrane and were blocked with 5% nonfat milk powder (w/v) in TBST (10 mmol/L Tris, 10 mmol/L NaCl, 0.1% Tween 20) for 1 hour at room temperature or overnight at 4° C. […] The bound antibodies were detected with horseradish peroxidase-labeled sheep anti-mouse IgG or horseradish peroxidase-labeled donkey anti-rabbit IgG using an enhanced chemiluminescence detection system (ECL Advanced kit). Protein expressions were determined using the Image Gauge v. […]

[2] = tested on: caspase-8, caspase-7, cleaved caspase-3, PARP, Fas/CD95, Fas-L, TNF-R1 in A2780 cells; assay: Immunoblot of apoptotic marker proteins and death receptors; format: cell-based, human
Protocol: (§2) Cells in RPMI 1640 were treated with DMSO (control) or HO-3867 (10 μmol/L) for 24 hours. Equal volumes of DMSO (0.1% v/v) were present in each treatment. Following treatment, the cell lysates were prepared in non-denaturing lysis buffer containing 10 mmol/L Tris-HCl (pH 7.4), 150 mmol/L NaCl, 1% Triton X-100, 1 mmol/L EDTA, 1 mmol/L EGTA, 0.3 mmol/L phenylmethyl-sulfonyl fluoride, 0.2 mmol/L sodium orthovanadate, 0.5% NP40, 1 μg/mL aprotinin, and 1 μg/mL leupetin. The lysates were centrifuged at 10,000×g for 20 minutes at 4° C. and the supernatant was separated. The protein concentration in the lysates was determined using a Pierce detergent-compatible protein assay kit. For Western blotting, 25 to 50 μg of protein lysate per sample were denatured in 2×SDS-PAGE sample buffer and subjected to SDS-PAGE on a 10% tris-glycine gel. The separated proteins were transferred to a polyvinylidene fluoride membrane and were blocked with 5% nonfat milk powder (w/v) in TBST (10 mmol/L Tris, 10 mmol/L NaCl, 0.1% Tween 20) for 1 hour at room temperature or overnight at 4° C. The membranes were then incubated with the primary antibodies. The bound antibodies were detected with horseradish peroxidase-labeled sheep anti-mouse IgG or horseradish peroxidase-labeled donkey anti-rabbit IgG using an enhanced chemiluminescence detection system (ECL Advanced kit). Protein expressions were determined using the Image Gauge v. 3.45 software.

[3] = tested on: A2780R, SKOV3, OV4, and OVCAR3 cells; assay: Western blot of apoptosis and JAK/STAT3 in four additional ovarian cancer cell lines; format: cell-based, human; conditions: 10 μmol/L, 24 hours, all four cell lines
Protocol: as §1

[4] = tested on: A2780 xenograft tumor tissue; assay: Immunoblot analysis of excised xenograft tumor tissue (JAK/STAT3, targets, apoptosis); format: in vivo, BALB/c nude mice
Protocol: as §2
Cultured A2780 cancer cells (2×10^6 cells in […] of PBS) were s.c. injected into the back of 6-week-old BALB/c nude mice from the National Cancer Institute. Five to 7 days later, when the tumors reached 3 to 5 mm in diameter, the mice were divided (n=9/group) in a manner to equalize the mean tumor diameter among the groups. The control group was given a normal diet (no treatment), whereas the experimental groups were treated using the DAP compounds mixed with the animal feed (Harlan Teklad) at three different levels (25, 50, and 100 ppm). The doses were chosen based on an initial dose-response study optimized to produce an observable effect on tumor growth. The size of the tumor was measured twice per week using a digital Vernier caliper. The tumor volume was determined from the orthogonal dimensions (d1, d2, d3) using the formula (d1×d2×d3)×π/6. Thirty five days after the beginning of HO-3867 treatment, the mice were sacrificed and the tumors were resected. The tumor tissues were then subjected to immunoblot analysis.

A2780 cells = assay: Intracellular ROS by DCF fluorescence, A2780; format: cell-based, human; conditions: 5 or 10 μM, 12 h
Protocol: The ROS levels in cells treated with DAPs were determined using H2DCF-DA, a membrane-permeative fluorogenic probe. The acetate and acetoxymethyl ester groups of this probe are enzymatically cleaved inside living cells. The probe can then be oxidized by intracellular oxidants (ROS) to give a product, DCF, which emits a strong, green fluorescence (λex=504 nm; λem=529 nm). The fluorescence intensity is proportional to the level of cellular oxidants. Cells, grown to 80% confluence on 6-mm glass coverslips, were treated with […] H-4073, HO-3867, H-4318, or HO-4200 for 12 h, followed by incubation with H2DCF-DA. The cells were further incubated in the dark for 20 min and washed with protein-free medium, and then fluorescence images were immediately captured with a Nikon Eclipse TE2000-U camera system using excitation/emission at 495/520 nm. The captured images were then analyzed using MetaMorph image analysis software.

A2780 and SKOV3 cells = assay: Cell-invasion (Boyden chamber) assay; format: cell-based, human; conditions: 10 μM
Protocol: Cell-migration assay was performed by wound-healing method. Cells were plated at equal density and grown to 90% confluence. Wounds were created using a sterile pipette tip. Cells were then rinsed with medium and replaced with the fresh medium and incubated with HO-3867 (10 μM). Areas of wound were marked and photographed at various time-points with a phase-contrast microscope. Cell-invasive assay was measured by an in vitro Boyden chamber assay. Briefly, 1×10^5 cells in 0.5 ml of serum-free RPMI 1640 medium were added to the wells of 8-μm-diameter pore membrane Boyden chambers, either coated with (BD Biosciences, Franklin Lake, N.J.) or without (Corning, Corning, N.Y.) Matrigel. Cells were allowed to invade for 24 hours. Cells that had not penetrated the filters were removed by scrubbing with cotton swabs. Chambers were fixed in 100% methanol for 2 min, stained in 0.5% crystal violet for 2 min, rinsed in PBS and examined using a bright-field microscope. Values for invasion were obtained by counting five fields per membrane and represented as the average of three independent experiments performed over multiple days.

CC1(C)C=C(CN2C/C(=C\c3ccc(F)cc3)C(=O)/C(=C/c3ccc(F)cc3)C2)C(C)(C)N1O [HO-3867, 1-[(1-oxyl-2,2,5,5-tetramethyl-2,5-dihydro-1H-pyrrol-3-yl)methyl]-(3E,5E)-3,5-bis(4-fluorobenzylidene)piperidin-4-one]
cytotoxicity to hOSE cells (hOSE cells; 20 μmol/L): significant cytotoxicity | toxicity to noncancerous hOSE cells compared with H-4073 (hOSE cells; equivalent doses): significantly less toxic | cytotoxicity to hOSE cells (hOSE cells; up to 10 μmol/L): no significant cytotoxicity | cdk2 and cyclin-A levels [1]: significantly decreased | levels of p53 and p21 [1]: significantly upregulated | level of activated caspases (caspase-8, caspase-7, cleaved caspase-3) and PARP ([2]; 24 hours, versus nontreated cells): significant increase | Fas-L level ([2]; data not shown): no significant change | expression level of TNF-R1 ([2]; data not shown): unchanged | Fas/CD95 expression ([2]; versus nontreated group): clear increase | caspase-3 and PARP cleavage [3]: clearly showed caspase-3 and PARP cleavage | expression levels of pSTAT3 and JAK1 [3]: decrease | cleaved caspase-3 and PARP in tumors ([4]; mouse, in vivo): significant induction | cyclin D1, VEGF, Bcl-2, and Survivin levels in tumors ([4]; mouse, in vivo): clear decrease | pJAK levels in tumor tissues ([4]; mouse, in vivo): did not observe any significant change | total JAK levels in tumor tissues ([4]; mouse, in vivo): clear downregulation | pSTAT3 Tyr705 and Ser727 levels in tumor tissue ([4]; without affecting total STAT3): decreased expressions | intracellular ROS generation (DCF fluorescence) in A2780 cells (A2780 cells): comparable in inducing ROS generation | cell invasion (A2780 and SKOV3 cells; 24 hours, versus untreated cells): significant inhibition | VEGF-induced invasion (A2780 and SKOV3 cells; 24-h incubation, versus VEGF group): significantly inhibited
